Legend:
Assay type in all cases: in vivo
Details in all cases: 250 g/h, evaluated after 13 days
[1] = tested on: Setaria faberi (SETFA); assay: Glasshouse herbicide test, post-emergence application
Procedure: (§1) Seeds of a variety of test species are sown in standard soil in pots (Lolium perenne (LOLPE), Setaria faberi (SETFA), Echinochloa crus-galli (ECHCG), Avena fatua (AVEFA)). After cultivation for one day (pre-emergence) or after 8 days cultivation (post-emergence) under controlled conditions in a glasshouse (at 24/16° C., day/night; 14 hours light; 65% humidity), the plants are sprayed with an aqueous spray solution derived from the formulation of the technical active ingredient in acetone/water (50:50) solution containing 0.5% Tween 20 (polyoxyethelyene sorbitan monolaurate, CAS RN 9005-64-5). Compounds are applied at 250 g/h. The test plants are then grown in a glasshouse under controlled conditions in a glasshouse (at 24/16° C., day/night; 14 hours light; 65% humidity) and watered twice daily. After 13 days for pre and post-emergence, the test is evaluated for the percentage damage caused to the plant. The biological activities are shown in the following table on a five point scale (5=80-100%; 4=60-79%; 3=40-59%; 2=20-39%; 1=0-19%).

[2] = tested on: Avena fatua (AVEFA); assay: as above
Procedure: as §1

[3] = tested on: Echinochloa crus-galli (ECHCG); assay: as above
Procedure: as §1

[4] = tested on: Lolium perenne (LOLPE); assay: as above
Procedure: as §1

[5] = tested on: Setaria faberi (SETFA); assay: Glasshouse herbicide test, pre-emergence application
Procedure: as §1

[6] = tested on: Avena fatua (AVEFA); assay: as above
Procedure: as §1

[7] = tested on: Echinochloa crus-galli (ECHCG); assay: as above
Procedure: as §1

[8] = tested on: Lolium perenne (LOLPE); assay: as above
Procedure: as §1

CC#Cc1cc(C)c(C2C(=O)CC3(CC2=O)CN(C(=O)c2ccccc2)C3)c(OC)c1 [Compound 1.015]
percentage damage caused to the plant, five point scale, SETFA [1]: 5 (5=80-100%) | percentage damage caused to the plant, five point scale, AVEFA [2]: 5 (5=80-100%) | percentage damage caused to the plant, five point scale, ECHCG [3]: 5 (5=80-100%) | percentage damage caused to the plant, five point scale, LOLPE [4]: 5 (5=80-100%) | percentage damage caused to the plant, five point scale, SETFA [5]: 5 (5=80-100%) | percentage damage caused to the plant, five point scale, AVEFA [6]: 5 (5=80-100%) | percentage damage caused to the plant, five point scale, ECHCG [7]: 5 (5=80-100%) | percentage damage caused to the plant, five point scale, LOLPE [8]: 5 (5=80-100%)

CC#Cc1cc(C)c(C2C(=O)CC3(CC2=O)CN(C(C)=O)C3)c(OC)c1 [Compound 1.013]
percentage damage caused to the plant, five point scale, SETFA [1]: 5 (5=80-100%) | percentage damage caused to the plant, five point scale, AVEFA [2]: 5 (5=80-100%) | percentage damage caused to the plant, five point scale, ECHCG [3]: 5 (5=80-100%) | percentage damage caused to the plant, five point scale, LOLPE [4]: 5 (5=80-100%) | percentage damage caused to the plant, five point scale, SETFA [5]: 5 (5=80-100%) | percentage damage caused to the plant, five point scale, AVEFA [6]: 5 (5=80-100%) | percentage damage caused to the plant, five point scale, ECHCG [7]: 5 (5=80-100%) | percentage damage caused to the plant, five point scale, LOLPE [8]: 5 (5=80-100%)

CC#Cc1cc(C)c(C2C(=O)CC3(CC2=O)CN(C(=O)COC)C3)c(OC)c1 [Compound 1.017]
percentage damage caused to the plant, five point scale, SETFA [1]: 5 (5=80-100%) | percentage damage caused to the plant, five point scale, AVEFA [2]: 5 (5=80-100%) | percentage damage caused to the plant, five point scale, ECHCG [3]: 4 (4=60-79%) | percentage damage caused to the plant, five point scale, LOLPE [4]: 5 (5=80-100%) | percentage damage caused to the plant, five point scale, SETFA [5]: 5 (5=80-100%) | percentage damage caused to the plant, five point scale, AVEFA [6]: 5 (5=80-100%) | percentage damage caused to the plant, five point scale, ECHCG [7]: 5 (5=80-100%) | percentage damage caused to the plant, five point scale, LOLPE [8]: 5 (5=80-100%)

CC#Cc1cc(C)c(C2C(=O)CC3(CC2=O)CN(C(=O)NC(=O)C(C)(C)C)C3)c(C)c1 [Compound 1.007]
percentage damage caused to the plant, five point scale, SETFA [1]: 4 (4=60-79%) | percentage damage caused to the plant, five point scale, AVEFA [2]: 4 (4=60-79%) | percentage damage caused to the plant, five point scale, ECHCG [3]: 5 (5=80-100%) | percentage damage caused to the plant, five point scale, LOLPE [4]: 5 (5=80-100%) | percentage damage caused to the plant, five point scale, SETFA [5]: 5 (5=80-100%) | percentage damage caused to the plant, five point scale, AVEFA [6]: 3 (3=40-59%) | percentage damage caused to the plant, five point scale, ECHCG [7]: 5 (5=80-100%) | percentage damage caused to the plant, five point scale, LOLPE [8]: 5 (5=80-100%)

CC#Cc1cc(C)c(C2C(=O)CC3(CC2=O)CN(C(=O)CC#N)C3)c(C)c1 [Compound 1.012]
percentage damage caused to the plant, five point scale, SETFA [1]: 5 (5=80-100%) | percentage damage caused to the plant, five point scale, AVEFA [2]: 4 (4=60-79%) | percentage damage caused to the plant, five point scale, ECHCG [3]: 5 (5=80-100%) | percentage damage caused to the plant, five point scale, LOLPE [4]: 5 (5=80-100%) | percentage damage caused to the plant, five point scale, SETFA [5]: 5 (5=80-100%) | percentage damage caused to the plant, five point scale, AVEFA [6]: 5 (5=80-100%) | percentage damage caused to the plant, five point scale, ECHCG [7]: 5 (5=80-100%) | percentage damage caused to the plant, five point scale, LOLPE [8]: 5 (5=80-100%)

CC#Cc1cc(C)c(C2C(=O)CC3(CC2=O)CN(C(=O)c2ccccn2)C3)c(OC)c1 [Compound 1.016]
percentage damage caused to the plant, five point scale, SETFA [1]: 5 (5=80-100%) | percentage damage caused to the plant, five point scale, AVEFA [2]: 5 (5=80-100%) | percentage damage caused to the plant, five point scale, ECHCG [3]: 5 (5=80-100%) | percentage damage caused to the plant, five point scale, LOLPE [4]: 5 (5=80-100%) | percentage damage caused to the plant, five point scale, SETFA [5]: 5 (5=80-100%) | percentage damage caused to the plant, five point scale, AVEFA [6]: 5 (5=80-100%) | percentage damage caused to the plant, five point scale, ECHCG [7]: 5 (5=80-100%) | percentage damage caused to the plant, five point scale, LOLPE [8]: 5 (5=80-100%)

CC#Cc1cc(C)c(C2C(=O)CC3(CC2=O)CN(C(=O)c2ccccc2)C3)c(C)c1 [Compound 1.003, 2-benzoyl-7-(2,6-dimethyl-4-prop-1-ynyl-phenyl)-2-azaspiro[3.5]nonane-6,8-dione]
percentage damage caused to the plant, five point scale, SETFA [1]: 5 (5=80-100%) | percentage damage caused to the plant, five point scale, AVEFA [2]: 5 (5=80-100%) | percentage damage caused to the plant, five point scale, ECHCG [3]: 5 (5=80-100%) | percentage damage caused to the plant, five point scale, LOLPE [4]: 5 (5=80-100%) | percentage damage caused to the plant, five point scale, SETFA [5]: 5 (5=80-100%) | percentage damage caused to the plant, five point scale, AVEFA [6]: 5 (5=80-100%) | percentage damage caused to the plant, five point scale, ECHCG [7]: 5 (5=80-100%) | percentage damage caused to the plant, five point scale, LOLPE [8]: 5 (5=80-100%)

CC#Cc1cc(C)c(C2C(=O)CC3(CC2=O)CN(C(=O)C(F)F)C3)c(C)c1 [Compound 1.009]
percentage damage caused to the plant, five point scale, SETFA [1]: 5 (5=80-100%) | percentage damage caused to the plant, five point scale, AVEFA [2]: 5 (5=80-100%) | percentage damage caused to the plant, five point scale, ECHCG [3]: 5 (5=80-100%) | percentage damage caused to the plant, five point scale, LOLPE [4]: 5 (5=80-100%) | percentage damage caused to the plant, five point scale, SETFA [5]: 5 (5=80-100%) | percentage damage caused to the plant, five point scale, AVEFA [6]: 5 (5=80-100%) | percentage damage caused to the plant, five point scale, ECHCG [7]: 5 (5=80-100%) | percentage damage caused to the plant, five point scale, LOLPE [8]: 5 (5=80-100%)

CC#Cc1cc(Cl)c(C2C(=O)CC3(CC2=O)CN(C(=O)C(F)F)C3)c(OC)c1 [Compound 1.193]
percentage damage caused to the plant, five point scale, SETFA [1]: 5 (5=80-100%) | percentage damage caused to the plant, five point scale, AVEFA [2]: 5 (5=80-100%) | percentage damage caused to the plant, five point scale, ECHCG [3]: 5 (5=80-100%) | percentage damage caused to the plant, five point scale, LOLPE [4]: 5 (5=80-100%) | percentage damage caused to the plant, five point scale, SETFA [5]: 5 (5=80-100%) | percentage damage caused to the plant, five point scale, AVEFA [6]: 5 (5=80-100%) | percentage damage caused to the plant, five point scale, ECHCG [7]: 5 (5=80-100%) | percentage damage caused to the plant, five point scale, LOLPE [8]: 5 (5=80-100%)

CC#Cc1cc(C)c(C2C(=O)CC3(CC2=O)CN(C(=O)NC(=O)c2ccccn2)C3)c(OC)c1 [Compound 1.022]
percentage damage caused to the plant, five point scale, SETFA [1]: 5 (5=80-100%) | percentage damage caused to the plant, five point scale, AVEFA [2]: 5 (5=80-100%) | percentage damage caused to the plant, five point scale, ECHCG [3]: 5 (5=80-100%) | percentage damage caused to the plant, five point scale, LOLPE [4]: 5 (5=80-100%) | percentage damage caused to the plant, five point scale, SETFA [5]: 5 (5=80-100%) | percentage damage caused to the plant, five point scale, AVEFA [6]: 2 (2=20-39%) | percentage damage caused to the plant, five point scale, ECHCG [7]: 4 (4=60-79%) | percentage damage caused to the plant, five point scale, LOLPE [8]: 3 (3=40-59%)

CC#Cc1cc(Cl)c(C2C(=O)CC3(CC2=O)CN(C(=O)C(C)(C)C)C3)c(OC)c1 [Compound 1.202]
percentage damage caused to the plant, five point scale, SETFA [1]: 5 (5=80-100%) | percentage damage caused to the plant, five point scale, AVEFA [2]: 5 (5=80-100%) | percentage damage caused to the plant, five point scale, ECHCG [3]: 5 (5=80-100%) | percentage damage caused to the plant, five point scale, LOLPE [4]: 5 (5=80-100%) | percentage damage caused to the plant, five point scale, SETFA [5]: 5 (5=80-100%) | percentage damage caused to the plant, five point scale, AVEFA [6]: 5 (5=80-100%) | percentage damage caused to the plant, five point scale, ECHCG [7]: 5 (5=80-100%) | percentage damage caused to the plant, five point scale, LOLPE [8]: 5 (5=80-100%)

CC#Cc1cc(C)c(C2C(=O)CC3(CC2=O)CN(C(=O)C2CC2)C3)c(C)c1 [Compound 1.008, 2-(cyclopropanecarbonyl)-7-(2,6-dimethyl-4-prop-1-ynyl-phenyl)-2-azaspiro[3.5]nonane-6,8-dione]
percentage damage caused to the plant, five point scale, SETFA [1]: 5 (5=80-100%) | percentage damage caused to the plant, five point scale, AVEFA [2]: 5 (5=80-100%) | percentage damage caused to the plant, five point scale, ECHCG [3]: 5 (5=80-100%) | percentage damage caused to the plant, five point scale, LOLPE [4]: 5 (5=80-100%) | percentage damage caused to the plant, five point scale, SETFA [5]: 5 (5=80-100%) | percentage damage caused to the plant, five point scale, AVEFA [6]: 5 (5=80-100%) | percentage damage caused to the plant, five point scale, ECHCG [7]: 5 (5=80-100%) | percentage damage caused to the plant, five point scale, LOLPE [8]: 5 (5=80-100%)

Reference: patent US12398101B2, “Herbicidal 2-azaspiro[3-5]nonane compounds” (SYNGENTA CROP PROTECTION AG, priority 2018, dated 2025)
